Assay results as given in patent US5391800A, “Method for inhibition of cell motility by sphingosine-1-phosphate, its derivatives and mimetics and method of synthesizing sphingosine-1-phosphate and its derivatives” (The Biomembrane Institute, priority 1993, dated 1995).
“Also recorded” adds a separate entry of the source.

What was measured:
human neutrophils [1] = assay: Phagokinetic activity of human neutrophils on gold sol-coated plates; format: cell-based; settings: for Cleared area: 2 hours, mean ± S.D., control 6.3 ± 2.3; for Reduction in phagokinetic activity of human neutrophils: Table VII, in words
Procedure: (§1) Phagokinetic activity is measured by the ability of cells to ingest foreign particles while moving. Cell motility can be estimated as the area of a phagokinetic track on gold sol particle-coated plates as previously described {Albrecht-Buehler, Cell, 11:395 (1977)}. A uniform coating of gold particles is prepared on glass coverslips precoated with bovine serum albumin, and coverslips are rinsed repeatedly to remove non-adhering or loosely-adhering gold particles. Freshly-prepared neutrophils or tumor cells detached from culture are placed in a Petri dish containing the gold sol-coated plate, and incubated for about 2 hours (for human neutrophils) or about 18 hours (for tumor cells). The coverslips are fixed for 1 hour in a 4% formaldehyde solution in phosphate-buffered saline (PBS) and mounted on microscope slides. The phagokinetic tracks are observed on a television connected to a light microscope (Nikon, Tokyo, Japan). Tracks on the television are transferred to translucent sheets, which are then photocopied. Phagokinetic activity is quantitated by cutting and weighing the swept area in the copy.
Cell motility was estimated as the area of phagokinetic track on gold sol particle-coated plates as previously described {Albrecht-Buehler, Cell, 11:395 (1977)}. A uniform coating of gold particles was prepared on glass coverslips precoated with bovine serum albumin, and the coverslips were rinsed repeatedly to remove non-adhering or loosely-adhering gold particles. Freshly-prepared neutrophils or tumor cells detached from culture were placed in a Petri dish containing the gold sol-coated plate, and incubated for 2 hours (for human neutrophils) or 18 hours (for tumor cells). The coverslips were fixed for 1 hour in 4% formaldehyde solution in phosphate-buffered saline (PBS) and mounted on microscope slides. The phagokinetic tracks were observed on a television connected to a light microscope (Nikon, Tokyo, Japan). Tracks on the television were transferred to translucent sheets, which were then photocopied. Phagokinetic activity was quantitated by cutting and weighing the swept area in the copy.
**mean ± S.D. Freshlyprepared neutrophils (1 × 10^4
cell/plate) were seeded on a coverslip precoated with gold sol particles
in the presence or absence of test compound. 2 hours later, incubation wa
terminated by adding 200 μl of 10% formaldehyde and the cleared area
was estimated as described in the text.

B16/F1 cells [2] = assay: Uptake and metabolic conversion of 3H-SPN and 14C-TMS in B16/F1 cells; format: in vitro ADME, mouse; settings: for Incorporation into B16/F1 cells: 3H-labeled SPN, 14C-labeled TMS; for Metabolic conversion: B16/F1 cells
Source text: FIGS. 12A and 12B depict the time-course uptake of ^3 H-SPN (FIG. 12A) and ^14 C-TMS (FIG. 12B) by B16/F1 cells. The ordinate represents % radioactivity taken up by B16/F1 cells and the abscissa represents time in hours.
FIGS. 13A-13C depict the time-course changes in labeling of various SPN derivatives after addition of ^3 H-SPN to B16/F1 cells:
FIG. 13A: thin-layer chromatography (TLC) of lipids separated from Folch's lower phase;
FIG. 13B: TLC of lipids separated from Folch's upper phase followed by incubation with ^14 C-TMS and extraction;
FIG. 13C: TLC of lipids separated from Folch's upper phase.
Lane 1, 0 minute. Lane 2, 10 minutes. Lane 3, 30 minutes. Lane 4, 1 hour. Lane 5, 2 hours. Lane 6, 4 hours. Lane 7, 20 hours. CER represents ceramide; CMH represents ceramide monohexoside; PE represents phosphatidyl-ethanolamine; SM represents sphingomyelin; TMS represents N,N,N-trimethylsphingosine; SPN represents sphingosine; SPN-1-P represents sphingosine-1-phosphate; and ORG represents the origin.
In addition, the uptake and metabolic conversion of SPN vs. TMS was investigated. […] Rapid conversion of SPN into sphingosine-1-phosphate is clearly indicated by the appearance of bands corresponding to SPN-1-P prior to conversion into Cer. The SPN-1-P peak appeared after 10 minutes incubation, whereas the Cer peak appeared after 1 hour incubation.

[3] = Toxicity to B16/F1 melanoma cells, trypan blue exclusion; format: cell-based, mouse; settings: mouse, b16/f1 cells; B16/F1; 50 μM; 1 hour incubation; control 99; read-out: Cell viability (%)
Procedure: (§2) Effects of SPN derivatives on protein kinase C activity and cell growth of B16/F1 cells was also investigated. […] Toxicity of these compounds to B16/F1 cells and human neutrophils was also examined using a trypan blue exclusion assay after 1 hour incubation with the compounds.

B16/F1 melanoma cells = assay: as above; format: cell-based, mouse; settings: for Toxicity: 45-50 μM, B16/F1 cells, 1 hour
Procedure: as §2

[4] = Toxicity to human neutrophils, trypan blue exclusion; format: cell-based; settings: human, neutrophils; neutrophil; 45 μM; 1 hour incubation; control 99; read-out: Cell viability (%)
Procedure: as §2

human neutrophils [5] = assay: as above; format: cell-based; settings: 45-50 μM; human neutrophils; 1 hour
Procedure: as §2

B16/F1 cells [6] = assay: Phagokinetic activity of B16/F1 cells on gold sol-coated plates; format: cell-based, mouse; settings: FIGS. 11A-F, SPN-1-P at 1.0 or 0.1 μM
Procedure: as §1
Cell motility was estimated as the area of phagokinetic track on gold sol particle-coated plates as previously described {Albrecht-Buehler, Cell, 11:395 (1977)}. […] Phagokinetic activity was quantitated by cutting and weighing the swept area in the copy. […]

[7] = 3H-SPN, in the presence of D-PDMP

Row | Structure (SMILES) | Cleared area (human neutrophils [1]; 0.45 μM) | Cleared area (human neutrophils [1]; 1.0 μM) | Reduction in phagokinetic activity of human neutrophils (human neutrophils [1]) | Incorporation into B16/F1 cells (B16/F1 cells [2]) | Metabolic conversion (B16/F1 cells [2]) | viability at 1 h, 50 µM [3] | Toxicity (B16/F1 melanoma cells) | Cytotoxicity, comparison (B16/F1 melanoma cells; concentration not given) | viability at 1 h, 45 µM [4] | Toxicity (human neutrophils [5]) | Cleared area (human neutrophils [1]; 4.5 μM) | Area cleared by tumor cells (B16/F1 cells [6]) | Appearance of Cer peak after incubation with SPN (B16/F1 cells [2]; [7]) | Appearance of SPN-1-P peak after incubation with SPN (B16/F1 cells [2]; [7])
1 | CCCCCCCCCCCCC/C=C/[C@@H](O)[C@H](CO)[N+](C)(C)C [TMS, N,N,N-trimethylsphingosine] | 5.4 ± 2.7 × 10^3 μm^2 | 3.6 ± 1.5 × 10^3 μm^2 | most striking | rapidly incorporated | unchanged regardless of incubation time; also recorded: cannot be phosphorylated | – | – | – | – | – | – | – | – | –
2 | CCCCCCCCCCCCC/C=C/[C@@H](O)[C@@H](N)COP(=O)(O)O [SPN-1-P, sphingosine-1-phosphate] | 5.5 ± 2.7 × 10^3 μm^2 | 5.4 ± 2.4 × 10^3 μm^2 | most striking | – | – | 72% | weak toxicity | far less cytotoxic than SPN, DMS, or TMS | 98% | weak toxicity | 3.5 ± 1.4 × 10^3 μm^2 | greatly reduced | – | –
3 | CCCCCCCCCCCCC/C=C/[C@@H](O)[C@@H](N)CO [SPN, sphingosine] | 5.2 ± 2.0 × 10^3 μm^2 | – | – | rapidly incorporated | rapidly converted into SPN-1-P and ceramide; also recorded: can be converted to SPN-1-P | 21% | very toxic | – | 5% | very toxic | – | reduced the area cleared by tumor cells | 1 h | 10 min
